# Source: US5151264A, “Particulate vector useful in particular for the transport of molecules with biological activity and process for its preparation” (priority 1988, dated 1992)
# Columns and labels:
# Bacillus subtilis = assay: Inhibition of Bacillus subtilis in agar medium / Petri dish (agar cylinders method); format: cell-based
# Experimental: (§1) Butirosin, like erythromycin, is determined by measuring the lysis zones (agar cylinders method) in an agar medium (bioMerieux) inoculated with 1000 cfu/ml of Bacillus subtilis and incubated at 37° C. for 18 hours. The bioMerieux agar medium consists of 6 g of bio-Gelytone, 3 g of yeast extract, 1.5 g of beef extract and 15 g of agar per 1 l of distilled water. The pH of the medium is adjusted to 9.
# (§2) The serum samples are deposited in the wells made in the agar medium (30 μl/well). Reference solutions representing known amounts of antibiotic are also deposited in the dish.
# [1] = Pharmacokinetics in plasma of free and encapsulated antibiotics in rabbits; format: in vivo, male rabbits of the "White New Zealand" type
# Description: In order to evaluate the influence of the encapsulation on the pharmacokinetics of two antibiotics, butirosin according to Example 6 and erythromycin according to Example 13, we carried out the determination in plasma as a function of time for these two antibiotics after administration in the free form and in the encapsulated form.
# The injections are given subcutaneously and intravenously to male rabbits of the "White New Zealand" type weighing approximately 3 kg. The samples are taken at the lateral vein of the ear in amounts of 200 μl of blood/sample. The blood is immediately centrifuged at 8000 rpm for 15 min. The serum is withdrawn and stored at 4° C. until used.
# as §1, §2
# The amounts injected are 1 ml containing 9 mg of butirosin in the free or encapsulated form.
# 4 ml of a physiological solution containing 5 mg of butirosin either in the free form or encapsulated in 100 mg of BVSM are injected. The solution is prepared from 8 g/l NaCl, 0.2 g/l KCl, 0.1 g/l anhydrous CaC12 (sic), 0.1 g/l MgCl2, 3.18 g/l Na2 HPO4 and 0.2 g/l KH2 PO4, adjusted to pH 7.4.
# The injections are made slowly in the external vein of the ear after vasodilatation with warm water and disinfection with ethanol at […].
# The amounts injected are 1 ml containing 15 mg of free or encapsulated erythromycin. For reasons of solubility, free erythromycin is dissolved in a water/ethanol (85:15) mixture.
# [2] = Bacillus subtilis, 18 h, read-out: Diameter (standard range)
compound,measurement,setting,value
"CC[C@H]1OC(=O)[C@H](C)[C@@H](O[C@H]2C[C@@](C)(OC)[C@@H](O)[C@H](C)O2)[C@H](C)[C@@H](O[C@@H]2O[C@H](C)C[C@H](N(C)C)[C@H]2O)[C@](C)(O)C[C@@H](C)C(=O)[C@H](C)[C@@H](O)[C@]1(C)O [Erythromycin, erythromycin]",zone of inhibition at 10 µg/mL,Bacillus subtilis; [2],26 mm
same,zone of inhibition at 25 µg/mL,Bacillus subtilis; [2],29 mm
same,zone of inhibition at 100 µg/mL,Bacillus subtilis; [2],31 mm
same,zone of inhibition at 250 µg/mL,Bacillus subtilis; [2],33 mm
same,zone of inhibition at 1000 µg/mL,Bacillus subtilis; [2],37 mm
same,diffusion in the plasma / plasma level,[1]; erythromycin,diffuses relatively slowly in the plasma
same,diffusion in the plasma / plasma level,"[1]; erythromycin, listed as Free erythromycin",higher initial level to be achieved in the plasma than the encapsulated form
butirosin,Diameter (standard range),Bacillus subtilis; 0.5 μg/ml,14 mm
same,Diameter (standard range),Bacillus subtilis; 1 μg/ml,17 mm
same,Diameter (standard range),Bacillus subtilis; 2 μg/ml,19 mm
same,Diameter (standard range),Bacillus subtilis; 5 μg/ml,22 mm
same,Diameter (standard range),Bacillus subtilis; 10 μg/ml,24 mm
same,Diameter (standard range),Bacillus subtilis; 20 μg/ml,26 mm
same,Diameter (standard range),Bacillus subtilis; 50 μg/ml,28 mm
same,diffusion into the plasma and elimination,"[1]; rabbit, in vivo, iv",diffuses very rapidly into the plasma and is also eliminated very rapidly
same,diffusion in the plasma / plasma level,"[1]; rabbit, in vivo, sc",diffuses very rapidly in the plasma
same,time after which eliminated,"[1]; rabbit, in vivo, sc",6 h
